Oligonucleotides are written 5' to 3', each unit as a sugar letter and its base; * is a phosphorothioate linkage, no mark a phosphodiester; rarer units and linkages stand in square brackets, end groups in braces. Plain capitals give the bases only. k = constrained ethyl (cEt); [5mC] = 5-methylcytosine; d = 2'-deoxy (DNA)
How the values were obtained:
[1] = tested on: human MALAT1 RNA; assay: MALAT1 RNA reduction in HEK-AGTR1 FAP cells, free uptake, 48 hours; type: cell-based; details: 48 hours; for MALAT (% control): relative to untreated control cells
Protocol: At the end of the treatment period, total RNA was isolated from the cells and MALAT1 RNA levels were measured by quantitative real-time PCR. […] MALAT1 RNA levels were normalized according to total RNA content, as measured by RIBOGREEN®. […] The half maximal inhibitory concentration (IC50) of each modified oligonucleotide was calculated using a non-linear fit [inhibitor] vs. response-variable slope (three parameters) formula in GraphPad Prism 7.01.

[2] = tested on: mouse MALAT RNA; assay: MALAT RNA reduction in vivo, C57BL6/J mice, multiple dose; details: for ED50: IV day 0, 4, 8
Protocol: Compound Nos. 556089, 1229761, and 1229762 are described in Table 1 above. Compound Nos. 556089, 1229761, and 1229762 were tested in C57BL6/J mice. The mice were divided into groups of 4 mice each. […] The mice were then sacrificed on day 12. Heart, adipose, adrenal, kidney, and liver tissue was then collected and homogenized and RNA analysis was performed. A group of 4 mice received PBS as a negative control.
RNA was extracted from heart, adipose, adrenal, kidney, and liver tissue for real-time PCR analysis of measurement of RNA expression of MALAT using primer probe set mMALAT1 #2 (forward sequence […] (SEQ ID NO: 5); reverse sequence […] (SEQ ID NO: 6); probe sequence […] (SEQ ID NO: 7)). Results are presented as percent change of RNA, relative to PBS control, normalized to mouse GAPDH.

[3] = molecular target: T1, human AGTR1 (Homo sapiens, UniProt P30556); assay: AGTR1 signaling, IP-One Gq kit (IP1 accumulation), HEK-AGTR1 FAP cells; type: cell-based; details: 90 minutes
T1 construct: host or cells: HEK293 (HEK-AGTR1 FAP cells)
T1 sequence (P30556 1-359): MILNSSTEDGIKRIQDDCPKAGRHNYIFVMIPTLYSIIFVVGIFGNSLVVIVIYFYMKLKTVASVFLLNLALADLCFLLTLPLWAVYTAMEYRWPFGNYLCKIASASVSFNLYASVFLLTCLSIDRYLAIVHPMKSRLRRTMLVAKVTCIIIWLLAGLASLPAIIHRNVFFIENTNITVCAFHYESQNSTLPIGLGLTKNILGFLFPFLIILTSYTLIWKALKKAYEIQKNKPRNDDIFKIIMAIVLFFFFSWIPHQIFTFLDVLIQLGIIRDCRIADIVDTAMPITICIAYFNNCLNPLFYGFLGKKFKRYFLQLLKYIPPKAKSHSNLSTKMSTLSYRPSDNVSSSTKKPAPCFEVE
Protocol: (§1) Activated AGTR1 couples to the Gαq subunit of heterotrimeric G proteins, which activates the phospholipase C (PLC) and subsequently inositol 1,4,5-trisphosphate (IP3) signaling cascade. AGTR1 signaling was measured using an IP-One Gq kit (cisbio #62IPAPEB). The kit detects the accumulation of inositol monophosphate (IP1), a stable downstream metabolite of IP3 induced by activation of a phospholipase C (PLC) cascade.
An additional control compound, AngII, which consists of the peptide motif […], was also tested. […] AGTR1 activation was measured using the IP-One Gq kit.

[4] = tested on: HEK-APLNR FAP cells; assay: IP1 accumulation negative control in HEK-APLNR FAP cells (do not express AGTR1); type: cell-based, human; details: 24 hours
Protocol: as §1
As a negative control, Compound Nos. 556089 and 1229761 were also tested in HEK293 cells expressing FAP tagged human Apelin receptor (HEK-APLNR FAP cells from Spectragenetics). […] HEK-APLNR FAP cells were cultured with Compound Nos. 556089 and 1229761, described herein above, at the concentrations detailed in Table 2 for 24 hours.

[5] = tested on: human MALAT1 RNA; assay: MALAT1 RNA reduction in HEK-AGTR1 FAP cells, free uptake, 24 hours; type: cell-based; details: 24 hours; for MALAT (% control): relative to untreated control cells
Protocol: At the end of the treatment period, total RNA was isolated from the cells and MALAT1 RNA levels were measured by quantitative real-time PC&. […] MALAT1 RNA levels were normalized according to total RNA content, as measured by RIBOGREEN®. Reduction of MALAT1 RNA is presented Table 3 below as percent MALAT1 RNA amount relative to untreated control (UTC) cells. The half maximal inhibitory concentration (IC50) of each modified oligonucleotide was calculated using a non-linear fit [inhibitor] vs. response—variable slope (four parameters) formula in GraphPad Prism 7.01.

Compound No. 556089: Control unconjugated parent modified oligonucleotide GCATTCTAATAGCAGC, cEt gapmer, phosphorothioate, complementary to mouse MALAT1 RNA (kG*k[5mC]*kA*dT*dT*d[5mC]*dT*dA*dA*dT*dA*dG*d[5mC]*kA*kG*k[5mC]) [reference compound]
MALAT (% control) ([1]; 2.7 nM): 97 % control | MALAT (% control) ([1]; 8.2 nM): 100 % control | MALAT (% control) ([1]; 24.7 nM): 104 % control | MALAT (% control) ([1]; 74.1 nM): 99 % control | MALAT (% control) ([1]; 222.2 nM): 82 % control | MALAT (% control) ([1]; 666.7 nM): 68 % control | MALAT (% control) ([1]; 2000 nM): 43 % control | MALAT (% control) ([1]; 6000 nM): 25 % control | MALAT (% control) ([1]; .10 nM): 104 % control | MALAT (% control) ([1]; .3 nM): 106 % control | MALAT (% control) ([1]; .9 nM): 101 % control | IC50 ([1]; MALAT1 RNA, three parameter fit): 1530 nM | MALAT-1 RNA (% control) ([2]; Adipose, 0.4 μmol/kg IV day 0, 4, 8, sacrifice day 12, relative to PBS): 68.4 % control | MALAT-1 RNA (% control) ([2]; Adipose, 1.2 μmol/kg IV day 0, 4, 8, sacrifice day 12, relative to PBS): 41.1 % control | MALAT-1 RNA (% control) ([2]; Adipose, 3.6 μmol/kg IV day 0, 4, 8, sacrifice day 12, relative to PBS): 27.3 % control | ED50 ([2]; Adipose): 0.034 µmol/kg | MALAT-1 RNA (% control) ([2]; Adrenal, 0.4 μmol/kg IV day 0, 4, 8, sacrifice day 12, relative to PBS): 95.2 % control | MALAT-1 RNA (% control) ([2]; Adrenal, 1.2 μmol/kg IV day 0, 4, 8, sacrifice day 12, relative to PBS): 75.7 % control | MALAT-1 RNA (% control) ([2]; Adrenal, 3.6 μmol/kg IV day 0, 4, 8, sacrifice day 12, relative to PBS): 64.1 % control | ED50 ([2]; Adrenal): 1.102 µmol/kg | MALAT-1 RNA (% control) ([2]; Heart, 0.4 μmol/kg IV day 0, 4, 8, sacrifice day 12, relative to PBS): 76.7 % control | MALAT-1 RNA (% control) ([2]; Heart, 1.2 μmol/kg IV day 0, 4, 8, sacrifice day 12, relative to PBS): 74.7 % control | MALAT-1 RNA (% control) ([2]; Heart, 3.6 μmol/kg IV day 0, 4, 8, sacrifice day 12, relative to PBS): 45.7 % control | ED50 ([2]; Heart): 4.11 µmol/kg | MALAT-1 RNA (% control) ([2]; Kidney, 0.4 μmol/kg IV day 0, 4, 8, sacrifice day 12, relative to PBS): 50.0 % control | MALAT-1 RNA (% control) ([2]; Kidney, 1.2 μmol/kg IV day 0, 4, 8, sacrifice day 12, relative to PBS): 46.7 % control | MALAT-1 RNA (% control) ([2]; Kidney, 3.6 μmol/kg IV day 0, 4, 8, sacrifice day 12, relative to PBS): 24.6 % control | ED50 ([2]; Kidney): 3.535 µmol/kg | MALAT-1 RNA (% control) ([2]; Liver, 0.4 μmol/kg IV day 0, 4, 8, sacrifice day 12, relative to PBS): 35.8 % control | MALAT-1 RNA (% control) ([2]; Liver, 1.2 μmol/kg IV day 0, 4, 8, sacrifice day 12, relative to PBS): 24.1 % control | MALAT-1 RNA (% control) ([2]; Liver, 3.6 μmol/kg IV day 0, 4, 8, sacrifice day 12, relative to PBS): 7.2 % control | ED50 ([2]; Liver): 1.578 µmol/kg | IP1 accumulation ([3]; 0.0256 nM): 696 nM | IP1 accumulation ([3]; 0.128 nM): 669 nM | IP1 accumulation ([3]; 0.64 nM): 692 nM | IP1 accumulation ([3]; 3.2 nM): 658 nM | IP1 accumulation ([3]; 16 nM): 646 nM | IP1 accumulation ([3]; 80 nM): 605 nM | IP1 accumulation ([3]; 400 nM): 648 nM | IP1 accumulation ([3]; 2000 nM): 672 nM | IP1 accumulation ([4]; 0.0256 nM): 584 nM | IP1 accumulation ([4]; 0.128 nM): 536 nM | IP1 accumulation ([4]; 0.64 nM): 563 nM | IP1 accumulation ([4]; 3.2 nM): 538 nM | IP1 accumulation ([4]; 16 nM): 526 nM | IP1 accumulation ([4]; 80 nM): 514 nM | IP1 accumulation ([4]; 400 nM): 553 nM | IP1 accumulation ([4]; 2000 nM): 542 nM | MALAT (% control) ([5]; 12 nM): 86 % control | MALAT (% control) ([5]; 37 nM): 98 % control | MALAT (% control) ([5]; 111 nM): 91 % control | MALAT (% control) ([5]; 333 nM): 63 % control | MALAT (% control) ([5]; 1000 nM): 60 % control | MALAT (% control) ([5]; 3000 nM): 36 % control | MALAT (% control) ([5]; 9000 nM): 29 % control | IC50 ([5]; MALAT1 RNA, four parameter fit): 850 nM

Source: patent US20220243210A1, “ANGIOTENSIN II TYPE 1 RECEPTOR TARGETED OLIGONUCLEOTIDES AND USES THEREOF” (Ionis Pharmaceuticals, Inc., priority 2019, published 2022)
